Test results: the supplement of paper PMC13207355

Tests used:
Conditions in all cases: exposure time: 72 h
E34 [1] = patient-derived glioblastoma stem cells of proneural subtype; experiment: phenotypic distance (Euclidean, principal components) from DMSO controls (arbitrary units); higher = stronger morphological change
E28 [2] = patient-derived glioblastoma stem cells of classical subtype; experiment: as above
E31 [3] = patient-derived glioblastoma stem cells of proneural subtype; experiment: as above
E21 [4] = patient-derived glioblastoma stem cells of mesenchymal subtype; experiment: as above
E57 [5] = patient-derived glioblastoma stem cells of mesenchymal subtype; experiment: as above
E13 [6] = patient-derived glioblastoma stem cells of classical subtype; experiment: as above
FT3469 [7] = normal neural stem cell line; experiment: as above
E34 [8] = experiment: surviving fraction (nuclei count normalised to DMSO); higher = more cells surviving (less toxic)
E28 [9] = experiment: as above
E31 [10] = experiment: as above
E21 [11] = experiment: as above
E57 [12] = experiment: as above
E13 [13] = experiment: as above
FT3469 [14] = experiment: as above
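Throughout, for phenotypic distance (Euclidean, principal components) from DMSO controls: cell Painting imaging in 384-well plates, CellProfiler features reduced to at least 20 principal components, Euclidean distance versus same-plate DMSO vehicle wells (0.1% v/v), median over six images per well.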
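Throughout, for surviving fraction (nuclei count normalised to DMSO): nuclei counted by high-content imaging of Hoechst-stained cells in laminin-coated 384-well plates, relative to 0.1% DMSO vehicle wells, with staurosporine as cell-death control.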

CCOC(=O)C1=C(C)NC(C)=C(C(=O)OCC)C1c1c(F)c(F)c(F)c(F)c1F [Nemadipine-A]
Conditions | phenotypic distance | surviving fraction
E13 [6], 4.1 nM | 0.957 | –
E13 [6], 12.3 nM | 0.892 | –
E13 [6], 37 nM | 0.571 | –
E13 [6], 111.1 nM | 0.762 | –
E13 [6], 333.3 nM | 0.542 | –
E13 [6], 1000 nM | 0.692 | –
E13 [6], 3000 nM | 0.903 | –
E13 [13], 4.1 nM | – | 0.797
E13 [13], 12.3 nM | – | 0.944
E13 [13], 37 nM | – | 0.915
E13 [13], 111.1 nM | – | 0.841
E13 [13], 333.3 nM | – | 0.948
E13 [13], 1000 nM | – | 1.09
E13 [13], 3000 nM | – | 0.764
E21 [4], 4.1 nM | 0.903 | –
E21 [4], 12.3 nM | 0.665 | –
E21 [4], 37 nM | 0.548 | –
E21 [4], 111.1 nM | 0.745 | –
E21 [4], 333.3 nM | 0.572 | –
E21 [4], 1000 nM | 0.681 | –
E21 [4], 3000 nM | 1.4 | –
E21 [11], 4.1 nM | – | 0.897
E21 [11], 12.3 nM | – | 0.936
E21 [11], 37 nM | – | 0.991
E21 [11], 111.1 nM | – | 0.971
E21 [11], 333.3 nM | – | 0.924
E21 [11], 1000 nM | – | 0.931
E21 [11], 3000 nM | – | 0.838
E28 [2], 4.1 nM | 0.43 | –
E28 [2], 12.3 nM | 0.613 | –
E28 [2], 37 nM | 0.807 | –
E28 [2], 111.1 nM | 0.686 | –
E28 [2], 333.3 nM | 0.703 | –
E28 [2], 1000 nM | 0.642 | –
E28 [2], 3000 nM | 1.14 | –
E28 [9], 4.1 nM | – | 0.9
E28 [9], 12.3 nM | – | 1.03
E28 [9], 37 nM | – | 0.81
E28 [9], 111.1 nM | – | 0.996
E28 [9], 333.3 nM | – | 0.945
E28 [9], 1000 nM | – | 0.934
E28 [9], 3000 nM | – | 0.704
E31 [3], 4.1 nM | 0.932 | –
E31 [3], 12.3 nM | 0.387 | –
E31 [3], 37 nM | 0.906 | –
E31 [3], 111.1 nM | 0.74 | –
E31 [3], 333.3 nM | 1.01 | –
E31 [3], 1000 nM | 0.415 | –
E31 [3], 3000 nM | 0.913 | –
E31 [10], 4.1 nM | – | 1.15
E31 [10], 12.3 nM | – | 1.05
E31 [10], 37 nM | – | 1.01
E31 [10], 111.1 nM | – | 1.26
E31 [10], 333.3 nM | – | 1.3
E31 [10], 1000 nM | – | 1.15
E31 [10], 3000 nM | – | 1.13
E34 [1], 4.1 nM | 0.666 | –
E34 [1], 12.3 nM | 0.857 | –
E34 [1], 37 nM | 0.641 | –
E34 [1], 111.1 nM | 0.619 | –
E34 [1], 333.3 nM | 0.843 | –
E34 [1], 1000 nM | 0.698 | –
E34 [1], 3000 nM | 0.734 | –
E34 [8], 4.1 nM | – | 1.01
E34 [8], 12.3 nM | – | 0.767
E34 [8], 37 nM | – | 1.14
E34 [8], 111.1 nM | – | 1.16
E34 [8], 333.3 nM | – | 1.13
E34 [8], 1000 nM | – | 0.926
E34 [8], 3000 nM | – | 0.909
E57 [5], 4.1 nM | 0.523 | –
E57 [5], 12.3 nM | 0.695 | –
E57 [5], 37 nM | 0.79 | –
E57 [5], 111.1 nM | 0.477 | –
E57 [5], 333.3 nM | 1.46 | –
E57 [5], 1000 nM | 0.54 | –
E57 [5], 3000 nM | 1.46 | –
E57 [12], 4.1 nM | – | 0.945
E57 [12], 12.3 nM | – | 1.07
E57 [12], 37 nM | – | 1.04
E57 [12], 111.1 nM | – | 0.954
E57 [12], 333.3 nM | – | 1.03
E57 [12], 1000 nM | – | 0.984
E57 [12], 3000 nM | – | 0.77
FT3469 [7], 4.1 nM | 0.624 | –
FT3469 [7], 12.3 nM | 0.608 | –
FT3469 [7], 37 nM | 0.488 | –
FT3469 [7], 111.1 nM | 0.574 | –
FT3469 [7], 333.3 nM | 0.712 | –
FT3469 [7], 1000 nM | 0.892 | –
FT3469 [7], 3000 nM | 1.01 | –
FT3469 [14], 4.1 nM | – | 1.03
FT3469 [14], 12.3 nM | – | 0.928
FT3469 [14], 37 nM | – | 1.17
FT3469 [14], 111.1 nM | – | 1.02
FT3469 [14], 333.3 nM | – | 0.866
FT3469 [14], 1000 nM | – | 1.1
FT3469 [14], 3000 nM | – | 0.804
